What all share (type): cell-based
One assay concerns Namwala. In words: MTT cell viability assay. The following applies: Burkitt Lymphoma, RPMI 10% FBS. The source says: (§1) A total of 60 cell lines representative of different cancer types were obtained from the ATCC and grown and maintained in accordance with the provided guidelines. The cell lines represented the following distinct histologies: mantle cell lymphoma (5 lines: JVM13, Rec1, Mino, JVM2, Jeko); germinal center B-cell derived (“GCB”) DLBCL (19 lines: Farage, BJAB, Ly1, Ly2, Ly7, Ly8, Ly19, HBL2, HT, Karpas422, Pfeiffer, RCK8, RL, Sci-1, Ski, SUDHL4, SUDHL7, Toledo, WSU-NHL); primary mediastinal B-cell lymphoma (“PMBL”) (3 lines: K1106, MEDB1, U2940); Burkitt lymphoma (11 lines: Daudi, CA46, EB1, EB2, EB3, Jijoye, Raji, Ramos, Namwala, BL2, BL41); Hodgkin lymphoma (3 lines: RMPI6666, L1236, L428); activated B-cell derived (“ABC”) DLBCL (6 lines: Ly3, HBL1, TMD8, Ly10, Riva, U2932); multiple myeloma (6 lines: U266, SKMM1, RPMI8226, KMS12, IM9, H929); acute myelogenous leukemia (“AML”) (2 lines: U937, KG1); acute lymphoblastic leukemia (“ALL”) (2 lines: Reh, SR); and T-cell lymphoma (3 lines: Molt4, RPMI8402, Jurkat). The cell lines were tested within six months after resuscitation.
(§2) The 3-(4,5-dimethylthiazol-2-yl)-2,5-diphenyltetrazolium bromide (MTT) cell viability assay was used to determine cell viability in response to drug treatment. Five replicates per concentration tested were carried out in serial dilutions with a total of ten concentrations with a 50% reduction in drug concentration per dilution for each plate. A total of 15 μl of MTT reagent was added to each drug-treated well and incubated for three hours in 37° C. Detergent was added to each drug-treated well and incubated overnight at room temperature without exposure to light. Absorbance was measured at 570 nm using a plate reader from Tecan Group. The IC50 concentration was determined using the publicly available ED50 plus v1.0 software program.

Another assay has as its system LY2. In words: MTT cell viability assay. The following applies: LY2, GCB DLBCL, OCI.
Excerpt: as §1, §2
A general note: Formazan colour is commonly taken as a measure of viable cells.

A further assay deals with TMD8. In words: MTT cell viability assay. The following applies: Homo sapiens; TMD8, ABC DLBCL, MEM-α 10% FBS.
Excerpt: as §1, §2

A further assay deals with Sci-1. Put plainly: MTT cell viability assay. Particulars: Sci-1, GCB DLBCL, RPMI 10% FBS.
Excerpt: as §1, §2

For a further assay, the system named is WSUNHL. In words: MTT cell viability assay. Particulars: Homo sapiens, WSU-NHL, GCB DLBCL, RPMI 10% FBS.
Excerpt: as §1, §2

In another assay the test system is Jeko. In words: MTT cell viability assay. The following applies: MantleCellLymphoma, RPMI 10% FBS.
Excerpt: as §1, §2

Another assay relates to LY1. Put plainly: MTT cell viability assay. The following applies: LY1, GCB DLBCL, OCI.
Excerpt: as §1, §2

In another assay the test system is Molt 4. Put plainly: MTT cell viability assay. The following applies: Homo sapiens; Molt 4, T-cell, RPMI 10% FBS.
Excerpt: as §1, §2

A further assay has as its system RPMI8226. Put plainly: MTT cell viability assay. Particulars: Homo sapiens, RPMI-8226; RPMI8226, Multiple Myeloma, RPMI 10% FBS.
Excerpt: as §1, §2

For another assay, the system named is SUDHL7. In words: MTT cell viability assay. The following applies: SUDHL7, GCB DLBCL, RPMI 15% FBS.
Excerpt: as §1, §2

The next assay has as its system Mino. In words: MTT cell viability assay. The following applies: Homo sapiens, MantleCellLymphoma, RPMI 10% FBS.
Excerpt: as §1, §2

The test system of another assay is K1106. In words: MTT cell viability assay. Particulars: K1106, PMBL, RPMI 15% FBS.
Excerpt: as §1, §2

The next assay concerns L1236. Put plainly: MTT cell viability assay. Particulars: L-1236; L1236, Hodgkin Lymphoma, RPMI 10% FBS.
Excerpt: as §1, §2

The test system of a further assay is EB3. Put plainly: MTT cell viability assay. Particulars: Homo sapiens, EB-3; EB3, Burkitt Lymphoma, RPMI 10% FBS.
Excerpt: as §1, §2

A further assay concerns KG1. In words: MTT cell viability assay. The following applies: Homo sapiens, KG-1; KG1, AML, IMDM 20% FBS.
Excerpt: as §1, §2

Another assay concerns Raji. In words: MTT cell viability assay. The following applies: Homo sapiens, Burkitt Lymphoma, RPMI 10% FBS.
Excerpt: as §1, §2

A further assay has as its system Daudi. Put plainly: MTT cell viability assay. Particulars: Homo sapiens, Burkitt Lymphoma, RPMI 10% FBS.
Excerpt: as §1, §2

Another assay has as its system RCK8. Put plainly: MTT cell viability assay. The following applies: Homo sapiens; RCK8, GCB DLBCL, RPMI 15% FBS.
Excerpt: as §1, §2

Assay [1] deals with PI3K pathway (p-AKT, p-S6, p-GSKalpha, p-GSKbeta) in BJAB DLBCL cells. Put plainly: Confirmation of pathway downregulation (Western blot) in BJAB. The following applies: for inhibition of the PI3K pathway: BJAB, time-course and dose-escalation experiments. The procedure:
RIPA lysis buffer (1×PBS, 1% NP-40, 0.5% sodium deoxycholate, 0.1% SDS, 10 mmol/L sodium orthovanadate) was added to 750,000 cells and incubate on ice for 30 minutes. The mixture was spun down, and the supernatant was transferred to a new tube as the whole-cell extract. A total of 20 μg cell lysate was separated on a 4% to 18% Tris-Bis NuPAGE gel (Invitrogen) and transferred using the iBlot transfer device (Invitrogen) program 3 for seven minutes. The blots were probed with a 1:100 p-AKT, 1:1000 total AKT, 1:100p-GSK3alpha, 1:100 p-GSK3beta, or 1:100 p-s6 (Cell Signaling), or 1:5000 goat anti-β-actin (SC-47778, Santa Cruz Biotech) for one hour at room temperature. The antibodies were detected by the use of 1:10,000 goat anti-mouse-HRP conjugated antibodies (Santa Cruz Biotech). Western Blotting Luminol Reagent (Santa Cruz Biotech) was used to visualize the bands corresponding to each antibody.
One million BJAB DLBCL cells were treated with increasing doses of BEZ235, and, after six hours, the cells were analyzed for a dose-dependent effect at 15, 30, 60, 125, 250, and 500 nmol/L concentrations. Cell count and viability were measured for each concentration. […] Western blot analyses were performed to assess phosphorylation of AKT, GSK3alpha, GSK3beta, and S6.
Inhibition of the PI3K pathway by the three PI3K inhibitors was confirmed through separate time-course and dose-escalation experiments, as well as by measuring the expression of key downstream members of the pathway. The drugs were tested in the BJAB DLBCL for their effects on p-AKT, p-S6, p-GSKalpha, and p-GSKbeta. […] An associated decrease in cell viability was ruled out by quantifying the proportion of viable cells at each time point using trypan blue staining.
Background: In western blotting, separated proteins are transferred to a membrane and probed.

The structures appear in SMILES notation.

What is called IC50 is the concentration at which inhibition is half-maximal. On to `Nc1cc(C(F)(F)F)c(-c2cc(N3CCOCC3)nc(N3CCOCC3)n2)cn1` [BKM120], for which the IC50 with Namwala is 714 nM; with LY2, 2220 nM; with TMD8, 764 nM; in the assay on Sci-1, 985 nM; with WSUNHL, 1260 nM; in the assay with Jeko, 752 nM. In addition, the IC50 in the assay with LY1 came to 382 nM; with Molt 4 it was 1110 nM; with RPMI8226, 674 nM; in the assay with SUDHL7 it was 233 nM; with Mino it was 460 nM; with K1106 it was 1870 nM. Also, the IC50 is 1120 nM in the assay on L1236; 655 nM in the assay with EB3; 724 nM in the assay on KG1; 2310 nM with Raji; 1300 nM in the assay with Daudi; 3260 nM in the assay on RCK8. Besides, the “inhibition of the PI3K pathway” value in [1] is “directly inhibit the PI3K pathway”.

Consider `COc1ccc(-c2ccc3ncc4c(c3c2)n(-c2ccc(N3CCNCC3)c(C(F)(F)F)c2)c(=O)n4C)cn1` [BGT226], for which the IC50 was found to be 101 nM in the assay with TMD8; 24.5 nM in the assay with Sci-1; 16.6 nM with Jeko; 8 nM in the assay with Molt 4; 10.5 nM in the assay on Mino; 18.2 nM in the assay with K1106. Moreover, the IC50 in the assay on L1236 was 12.4 nM; in the assay with EB3 it was 44.5 nM; with KG1, 25.1 nM; in the assay with Raji, 79.8 nM; in the assay on Daudi, 86.4 nM; with RCK8, 21.8 nM. For the same compound, in [1], the “inhibition of the PI3K pathway” value was “directly inhibit the PI3K pathway”.

Consider `Cn1c(=O)n(-c2ccc(C(C)(C)C#N)cc2)c2c3cc(-c4cnc5ccccc5c4)ccc3ncc21` [BEZ235], for which the IC50 in the assay with Namwala was 32.1 nM; in the assay with LY2 it was 29.7 nM; in the assay with TMD8, 118 nM; in the assay on Sci-1, 35 nM; with WSUNHL, 16.2 nM; with Jeko, 51 nM. In addition, the IC50 in the assay with LY1 stood at 16.4 nM; in the assay on Molt 4 it was 168 nM; with RPMI8226 it was 56.9 nM; in the assay with SUDHL7 it was 22.2 nM; with Mino it was 60.8 nM; with K1106, 536 nM. Moreover, the IC50 was determined as 60 nM in the assay with L1236; 36.8 nM in the assay on EB3; 79.9 nM in the assay with KG1; 300 nM with Raji; 46.7 nM in the assay with Daudi; 20 nM with RCK8. Moreover, the “down regulation of PI3K targets, time course” value in assay [1] (30 nmol/L BEZ235, three and six hours after treatment, total AKT and actin unchanged) was “time-dependent down regulation”. In addition, the “inhibition of the PI3K pathway” value in assay [1] was “directly inhibit the PI3K pathway”.

For the origin of these results see patent US9861625B2, “Methods and compositions for treating cancer through inhibition of PI3K” (Duke University, priority 2014, dated 2018).
